Measurements: US11090319B2, “Therapeutic uses of pharmaceutical compositions comprising cyclic boronic acid ester derivatives” (Melinta Subsidiary Corp., priority 2010, dated 2021)
pIC50: −log10 of the molar value. Where two headings read alike, the source gives them in different places.

Tests used:
[1] = molecular target: various β-lactamases (bacterial lysates) (Escherichia coli, UniProt A0A5R8T042); experiment: biochemical; format: biochemical; details: read-out: AZT IC50 KP1009 CTX-M-15
[2] = molecular target: various β-lactamases (bacterial lysates) (Escherichia coli, UniProt A0A649V088); experiment: biochemical; format: biochemical; details: read-out: AZT IC50 KP1005 CTX-M-14
[3] = molecular target: various β-lactamases (bacterial lysates) (Klebsiella pneumoniae, UniProt Q9F663); experiment: biochemical; format: biochemical; details: for IC50: lysate KP1004 KPC-2, read-out: AZT IC50 KP1004 KPC-2 (converted)
[4] = molecular target: various β-lactamases (bacterial lysates) (Klebsiella pneumoniae, UniProt Q9F663, H272Y); experiment: biochemical; format: biochemical
[5] = molecular target: various β-lactamases (bacterial lysates) (Pseudomonas aeruginosa, UniProt P14489); experiment: biochemical; format: biochemical; details: AZT IC50 KP1007 OXA-10
[6] = molecular target: various β-lactamases (bacterial lysates) (Salmonella typhimurium, UniProt P0A1V8); experiment: biochemical; format: biochemical; details: AZT IC50 KPX1001 OXA-2
[7] = molecular target: various β-lactamases (bacterial lysates) (Escherichia coli, UniProt Q53TY8); experiment: Inhibition of nitrocefin cleavage by bacterial lysates, Table 11; format: biochemical; details: lysate EC1010 pAmpC (CMY-6), read-out: NCF IC50 EC1010 pAmpC (CMY-6)
[8] = tested on: strains expressing class A ESBLs; format: cell-based
Protocol: Selected β-lactamase inhibitors were also tested for their ability to potentiate the monobactam tigemonam.

[9] = lysate KP1008 KPC-2, aztreonam cleavage, read-out: AZT IC50 KP1008 KPC-2

various β-lactamases (bacterial lysates) (Escherichia coli, UniProt A0A649V088), sequence (A0A649V088 29-291): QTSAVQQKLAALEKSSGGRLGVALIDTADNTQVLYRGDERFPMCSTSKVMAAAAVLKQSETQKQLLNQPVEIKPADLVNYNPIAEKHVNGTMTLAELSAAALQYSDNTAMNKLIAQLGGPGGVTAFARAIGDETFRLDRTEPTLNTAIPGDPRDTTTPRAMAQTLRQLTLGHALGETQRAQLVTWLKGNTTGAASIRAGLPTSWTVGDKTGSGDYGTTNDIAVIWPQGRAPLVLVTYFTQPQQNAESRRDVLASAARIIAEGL
various β-lactamases (bacterial lysates) (Klebsiella pneumoniae, UniProt Q9F663, H272Y), sequence (Q9F663 whole entry H272Y, looked up): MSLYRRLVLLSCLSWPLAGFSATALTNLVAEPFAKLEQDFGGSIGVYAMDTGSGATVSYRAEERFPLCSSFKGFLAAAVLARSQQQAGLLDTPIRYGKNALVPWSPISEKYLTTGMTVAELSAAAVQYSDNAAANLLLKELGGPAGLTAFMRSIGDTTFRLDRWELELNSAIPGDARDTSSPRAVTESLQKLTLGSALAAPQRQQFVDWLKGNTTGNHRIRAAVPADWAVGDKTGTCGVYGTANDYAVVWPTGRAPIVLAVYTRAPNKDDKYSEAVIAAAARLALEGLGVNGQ
various β-lactamases (bacterial lysates) (Klebsiella pneumoniae, UniProt Q9F663), sequence (Q9F663 whole entry, looked up): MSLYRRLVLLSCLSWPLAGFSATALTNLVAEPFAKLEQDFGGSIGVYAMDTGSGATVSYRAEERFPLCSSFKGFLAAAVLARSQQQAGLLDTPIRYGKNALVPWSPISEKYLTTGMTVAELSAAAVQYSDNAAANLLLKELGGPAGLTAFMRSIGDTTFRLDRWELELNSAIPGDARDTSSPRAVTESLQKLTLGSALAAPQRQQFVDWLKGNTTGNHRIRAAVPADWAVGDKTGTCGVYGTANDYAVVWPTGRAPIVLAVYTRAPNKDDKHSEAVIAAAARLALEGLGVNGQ
various β-lactamases (bacterial lysates) (Escherichia coli, UniProt Q53TY8), sequence (Q53TY8 entry or part of it): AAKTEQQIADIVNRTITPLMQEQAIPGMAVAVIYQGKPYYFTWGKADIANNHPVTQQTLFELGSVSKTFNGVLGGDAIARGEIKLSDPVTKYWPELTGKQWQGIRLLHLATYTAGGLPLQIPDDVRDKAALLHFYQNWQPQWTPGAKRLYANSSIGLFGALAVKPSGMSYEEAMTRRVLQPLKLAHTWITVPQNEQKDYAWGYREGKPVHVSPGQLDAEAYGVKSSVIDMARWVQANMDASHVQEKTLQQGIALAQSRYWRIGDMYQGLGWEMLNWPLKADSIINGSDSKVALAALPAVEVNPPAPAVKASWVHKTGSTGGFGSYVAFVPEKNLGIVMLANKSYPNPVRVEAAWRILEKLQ
various β-lactamases (bacterial lysates) (Salmonella typhimurium, UniProt P0A1V8), sequence (P0A1V8 22-275): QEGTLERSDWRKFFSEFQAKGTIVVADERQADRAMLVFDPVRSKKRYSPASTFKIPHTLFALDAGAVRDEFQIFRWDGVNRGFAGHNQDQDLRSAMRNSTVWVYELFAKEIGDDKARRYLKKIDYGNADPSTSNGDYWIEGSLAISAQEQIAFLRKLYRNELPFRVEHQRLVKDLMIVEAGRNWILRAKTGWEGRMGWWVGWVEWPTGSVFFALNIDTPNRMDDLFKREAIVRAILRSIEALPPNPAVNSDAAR
various β-lactamases (bacterial lysates) (Pseudomonas aeruginosa, UniProt P14489), sequence (P14489 20-266): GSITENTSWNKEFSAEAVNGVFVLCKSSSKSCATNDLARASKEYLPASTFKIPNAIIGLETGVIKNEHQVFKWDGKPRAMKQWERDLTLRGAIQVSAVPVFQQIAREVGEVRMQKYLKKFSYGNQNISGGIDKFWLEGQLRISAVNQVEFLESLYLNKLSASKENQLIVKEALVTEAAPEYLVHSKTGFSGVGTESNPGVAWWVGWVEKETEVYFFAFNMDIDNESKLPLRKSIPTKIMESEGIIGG
various β-lactamases (bacterial lysates) (Escherichia coli, UniProt A0A5R8T042), sequence (A0A5R8T042 29-291): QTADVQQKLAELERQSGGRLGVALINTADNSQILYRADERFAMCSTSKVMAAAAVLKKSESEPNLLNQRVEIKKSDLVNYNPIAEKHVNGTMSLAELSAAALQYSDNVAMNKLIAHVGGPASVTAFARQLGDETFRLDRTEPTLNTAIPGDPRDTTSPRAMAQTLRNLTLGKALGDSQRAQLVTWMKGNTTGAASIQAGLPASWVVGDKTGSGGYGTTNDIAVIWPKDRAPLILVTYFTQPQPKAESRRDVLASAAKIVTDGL

Compound	pIC50 [1]	pIC50 [2]	IC50 ([3]; aztreonam cleavage)	pIC50 [3, 9]	pIC50 [4]	pIC50 [5]	pIC50 [6]	pIC50 [7]	MPC4 CTX-M-14 KP1005 [8]	MPC4 CTX-M-15 KP1009 [8]	MPC4 SHV-5 ec308 [8]	MPC4 SHV-12 KP1010 [8]	MPC4 SHV-18 KP1012 [8]	MPC4 TEM-10 EC1009 [8]	MPC4 TEM-10 ec302 [8]	MPC4 TEM-26 ec304 [8]	pIC50 ([3]; AZT IC50 KP1004 KPC-2)	pIC50 ([3]; AZT IC50 KP1008 KPC-2)
O=C(O)C[C@@H]1CC[C@H](NC(=O)Cn2ccnc2-c2ccccc2)B(O)O1 [Compound 54, 2-((3R,6S)-2-hydroxy-3-(2-(2-phenyl-1H-imidazol-1-yl)acetamido)-1,2-oxaborinan-6-yl)acetic acid]	< 5.25	> 5.85	< 1400 nM	> 5.85	> 5.85	< 5.25	5.25 to 5.85	5.25 to 5.85	–	–	–	–	–	–	–	–	–	–
O=C(O)C[C@@H]1CC[C@H](NC(=O)c2ccccc2)B(O)O1 [Compound 37, 2-((3R,6S)-3-benzamido-2-hydroxy-1,2-oxaborinan-6-yl)acetic acid]	> 5.74	> 5.74	< 1800 nM	> 5.74	> 5.74	5.14 to 5.74	5.14 to 5.74	–	Z (key: X: MPC@4 of less than 2 μg/mL; Y: MPC@4 of 2 μg/mL to 10 μg/mL; Z: MPC@4 of greater than 10 μg/mL)	Z (key: X: MPC@4 of less than 2 μg/mL; Y: MPC@4 of 2 μg/mL to 10 μg/mL; Z: MPC@4 of greater than 10 μg/mL)	Z (key: X: MPC@4 of less than 2 μg/mL; Y: MPC@4 of 2 μg/mL to 10 μg/mL; Z: MPC@4 of greater than 10 μg/mL)	Z (key: X: MPC@4 of less than 2 μg/mL; Y: MPC@4 of 2 μg/mL to 10 μg/mL; Z: MPC@4 of greater than 10 μg/mL)	Z (key: X: MPC@4 of less than 2 μg/mL; Y: MPC@4 of 2 μg/mL to 10 μg/mL; Z: MPC@4 of greater than 10 μg/mL)	Z (key: X: MPC@4 of less than 2 μg/mL; Y: MPC@4 of 2 μg/mL to 10 μg/mL; Z: MPC@4 of greater than 10 μg/mL)	Z (key: X: MPC@4 of less than 2 μg/mL; Y: MPC@4 of 2 μg/mL to 10 μg/mL; Z: MPC@4 of greater than 10 μg/mL)	Z (key: X: MPC@4 of less than 2 μg/mL; Y: MPC@4 of 2 μg/mL to 10 μg/mL; Z: MPC@4 of greater than 10 μg/mL)	–	–
CC(C)(O/N=C(\C(=O)N[C@H]1CC[C@@H](CC(=O)O)OB1O)c1csc(N)n1)C(=O)O [Compound 36, 2-((Z)-1-(2-aminothiazol-4-yl)-2-((3R,6S)-6-(carboxymethyl)-2-hydroxy-1,2-oxaborinan-3-ylamino)-2-oxoethylideneaminooxy)-2-methylpropanoic acid]	> 5.93	> 5.93	1170 to 4670 nM	5.33 to 5.93	> 5.93	< 5.33	< 5.33	< 5.33	–	–	–	–	–	–	–	–	–	–
CO/N=C(\C(=O)N[C@H]1CC[C@@H](CC(=O)O)OB1O)c1csc(N)n1 [Compound 40, 2-((3R,6S)-3-((Z)-2-(2-aminothiazol-4-yl)-2-(methoxyimino)acetamido)-2-hydroxy-1,2-oxaborinan-6-yl)acetic acid]	> 5.85	> 5.85	1400 to 5620 nM	< 5.25	5.25 to 5.85	5.25 to 5.85	> 5.85	5.25 to 5.85	–	–	–	–	–	–	–	–	–	–
NC1(CC(=O)N[C@H]2CC[C@@H](CC(=O)O)OB2O)CCCCC1 [Compound 51, 2-((3R,6S)-3-(2-(1-aminocyclohexyl)acetamido)-2-hydroxy-1,2-oxaborinan-6-yl)acetic acid]	< 5.19	< 5.19	< 1600 nM	> 5.80	> 5.80	< 5.19	5.19 to 5.80	5.19 to 5.80	–	–	–	–	–	–	–	–	–	–
Nc1nc(/C(=N/OCc2cc(=O)c(O)cn2O)C(=O)N[C@H]2CC[C@@H](CC(=O)O)OB2O)cs1 [Compound 62, 2-((3R)-3-((Z)-2-(2-aminothiazol-4-yl)-2-((1,5-dihydroxy-4-oxo-1,4-dihydropyridin-2-yl)methoxyimino)acetamido)-2-hydroxy-1,2-oxaborinan-6-yl)acetic acid]	5.38 to 5.98	5.38 to 5.98	1040 to 4160 nM	> 5.98	> 5.98	< 5.38	< 5.38	< 5.38	–	–	–	–	–	–	–	–	–	–
NCCSCC(=O)N[C@H]1CC[C@@H](CC(=O)O)OB1O [Compound 48, 2-((3R,6S)-3-(2-(2-aminoethylthio)acetamido)-2-hydroxy-1,2-oxaborinan-6-yl)acetic acid]	< 5.16	5.16 to 5.76	< 1720 nM	5.16 to 5.76	> 5.76	< 5.16	5.16 to 5.76	–	Z (key: X: MPC@4 of less than 2 μg/mL; Y: MPC@4 of 2 μg/mL to 10 μg/mL; Z: MPC@4 of greater than 10 μg/mL)	Z (key: X: MPC@4 of less than 2 μg/mL; Y: MPC@4 of 2 μg/mL to 10 μg/mL; Z: MPC@4 of greater than 10 μg/mL)	Z (key: X: MPC@4 of less than 2 μg/mL; Y: MPC@4 of 2 μg/mL to 10 μg/mL; Z: MPC@4 of greater than 10 μg/mL)	Z (key: X: MPC@4 of less than 2 μg/mL; Y: MPC@4 of 2 μg/mL to 10 μg/mL; Z: MPC@4 of greater than 10 μg/mL)	Z (key: X: MPC@4 of less than 2 μg/mL; Y: MPC@4 of 2 μg/mL to 10 μg/mL; Z: MPC@4 of greater than 10 μg/mL)	Z (key: X: MPC@4 of less than 2 μg/mL; Y: MPC@4 of 2 μg/mL to 10 μg/mL; Z: MPC@4 of greater than 10 μg/mL)	Z (key: X: MPC@4 of less than 2 μg/mL; Y: MPC@4 of 2 μg/mL to 10 μg/mL; Z: MPC@4 of greater than 10 μg/mL)	Z (key: X: MPC@4 of less than 2 μg/mL; Y: MPC@4 of 2 μg/mL to 10 μg/mL; Z: MPC@4 of greater than 10 μg/mL)	–	–
O=C(O)[C@H]1/C(=C/CO)O[C@@H]2CC(=O)N21 [Clavulanic Acid, reference compound]	5.91	6.56	–	–	5.13	5.13	6.40	–	2.5 µg/mL	1.25 µg/mL	<=0.6 μg/mL	<=0.6 μg/mL	<=0.6 μg/mL	<=0.6 μg/mL	2.5 µg/mL	<=0.6 μg/mL	5.43	4.95
O=C(O)CC1CCC[C@H](NC(=O)Cc2cccs2)B(O)O1 (stereo partly drawn) [Compound 63, 2-((3R)-2-hydroxy-3-(2-(thiophen-2-yl)acetamido)-1,2-oxaborepan-7-yl)acetic acid]	5.19 to 5.79	5.19 to 5.79	1610 to 6430 nM	5.19 to 5.79	5.19 to 5.79	< 5.19	5.19 to 5.79	–	Z (key: X: MPC@4 of less than 2 μg/mL; Y: MPC@4 of 2 μg/mL to 10 μg/mL; Z: MPC@4 of greater than 10 μg/mL)	Y (key: X: MPC@4 of less than 2 μg/mL; Y: MPC@4 of 2 μg/mL to 10 μg/mL; Z: MPC@4 of greater than 10 μg/mL)	Z (key: X: MPC@4 of less than 2 μg/mL; Y: MPC@4 of 2 μg/mL to 10 μg/mL; Z: MPC@4 of greater than 10 μg/mL)	Y (key: X: MPC@4 of less than 2 μg/mL; Y: MPC@4 of 2 μg/mL to 10 μg/mL; Z: MPC@4 of greater than 10 μg/mL)	Y (key: X: MPC@4 of less than 2 μg/mL; Y: MPC@4 of 2 μg/mL to 10 μg/mL; Z: MPC@4 of greater than 10 μg/mL)	Z (key: X: MPC@4 of less than 2 μg/mL; Y: MPC@4 of 2 μg/mL to 10 μg/mL; Z: MPC@4 of greater than 10 μg/mL)	Z (key: X: MPC@4 of less than 2 μg/mL; Y: MPC@4 of 2 μg/mL to 10 μg/mL; Z: MPC@4 of greater than 10 μg/mL)	Z (key: X: MPC@4 of less than 2 μg/mL; Y: MPC@4 of 2 μg/mL to 10 μg/mL; Z: MPC@4 of greater than 10 μg/mL)	–	–
O=C(O)C[C@@H]1CC[C@H](NC(=O)C[C@@H]2CCCCN2)B(O)O1 [Compound 53, 2-((3R,6S)-2-hydroxy-3-(2-((S)-piperidin-2-yl)acetamido)-1,2-oxaborinan-6-yl)acetic acid]	< 5.17	< 5.17	< 1680 nM	5.17 to 5.78	5.17 to 5.78	< 5.17	5.17 to 5.78	–	–	–	–	–	–	–	–	–	–	–
